{"source": "patent US20160324852A1", "about": "“COMPOSITIONS AND METHODS OF TREATING A NEURODEGENERATIVE DISEASE” (Axovant Sciences Ltd., priority 2015, published 2016)", "key": {"[1]": {"system": "rats", "test": "nonclinical studies, seizures in rats", "assay_type": "in vivo"}, "[2]": {"system": "patients with Alzheimer's disease", "test": "Phase 2 studies in 1024 patients with Alzheimer's disease, seizures", "assay_type": "in vivo", "conditions": "15 mg group, Phase 2b study, adjunctive therapy to donepezil; reported as not attributable to study drug", "protocol": "(§1) The 35 mg dose was evaluated in four Phase 2 trials and is the dose being evaluated in a Phase 3 pivotal study. In the AZ310866 Phase 2b study, there was a dose dependent increase in efficacy vs placebo in the ADAS-Cog score between 15 mg (−0.7 units) and 35 mg (−1.7 units). […] These benefits need to be balanced with the potential for adverse events, in particular, the CNS toxicity observed in dogs and rabbits described below. […] In the 26-week dog study, one high-dose dog had seizures on Day 55 and was euthanized. A second dog had seizures on Day 59 and survived. For the second dog, plasma samples taken approximately 5 minutes and two hours after the seizure (4 and 6 hours post dose on Day 59) had SB742457 concentrations of 1570 and 1440 ng/mL, respectively. […] In study SB742457/005, elderly subjects received 35 mg once daily of 3-phenylsulfonyl-8-piperazinyl-1yl-quinoline for 28 days. […] This mean value is approximately ¼th the Cmax value observed in dogs with seizures. The maximum concentration that may be achieved is approximately ½ the Cmax value observed in the 2 dogs with seizures. […]"}, "[3]": {"system": "dogs", "test": "in vivo", "conditions": "dog", "protocol": "(§2) The 35 mg dose was evaluated in four Phase 2 trials and is the dose being evaluated in a Phase 3 pivotal study. In the AZ310866 Phase 2b study, there was a dose dependent increase in efficacy vs placebo in the ADAS-Cog score between 15 mg (−0.7 units) and 35 mg (−1.7 units). […] These benefits need to be balanced with the potential for adverse events, in particular, the CNS toxicity observed in dogs and rabbits described below. […] In the 26-week dog study, one high-dose dog had seizures on Day 55 and was euthanized. A second dog had seizures on Day 59 and survived. For the second dog, plasma samples taken approximately 5 minutes and two hours after the seizure (4 and 6 hours post dose on Day 59) had SB742457 concentrations of 1570 and 1440 ng/mL, respectively. […] In study SB742457/005, elderly subjects received 35 mg once daily of 3-phenylsulfonyl-8-piperazinyl-1yl-quinoline for 28 days. […] This mean value is approximately ¼th the Cmax value observed in dogs with seizures. The maximum concentration that may be achieved is approximately ½ the Cmax value observed in the 2 dogs with seizures. To further understand the risk to humans, SimCYP population PBPK modelling was used to predict brain concentrations of 3-phenylsulfonyl-8-piperazinyl-1yl-quinoline in dogs exposed to the concentrations linked with seizures, and to compare these with predicted human brain concentrations at the clinical dose of 35 mg. The simulations predicted that the human steady-state brain concentrations following repeat administration with 35 mg would be approximately 40-fold lower than the brain concentrations associated with seizures in dogs. Assuming linear pharmacokinetics, the human steady-state brain concentrations with 70 mg would be approximately 20-fold lower than the brain concentrations associated with convulsions in dogs. […] Furthermore, in Phase 2 studies encompassing 1024 patients with Alzheimer's disease at doses of 5 mg to 35 mg per day, two subjects reported seizures, both in the Phase 2b study with 3-phenylsulfonyl-8-piperazinyl-1yl-quinolone administered as adjunctive therapy to donepezil. One subject was in the placebo group and one in the 15 mg 3-phenylsulfonyl-8-piperazinyl-1yl-quinoline group. The subject receiving 3-phenylsulfonyl-8-piperazinyl-1yl-quinoline was hospitalized with a suspicion of a TIA and experienced a seizure, which was reported by the PI as not attributable to study drug."}, "[4]": {"test": "in vivo", "conditions": "dog", "protocol": "as §2"}, "[5]": {"test": "clinical", "conditions": "human, in vivo"}, "[6]": {"system": "healthy subjects", "test": "clinical studies with healthy subjects (n=225), seizures", "assay_type": "in vivo", "conditions": "single doses of up to 175 mg and repeat doses of up to 50 mg for 13 days", "protocol": "as §1"}, "[7]": {"test": "study SB742457/005, pharmacokinetics in elderly subjects", "assay_type": "in vivo, human", "conditions": "for Cmax: human, plasma", "protocol": "as §2"}, "[8]": {"system": "healthy rat brain glucose utilization", "test": "FDG-PET/CT brain glucose utilization in healthy rats", "assay_type": "in vivo", "conditions": "healthy young CD rats, 10 mg/kg or 20 mg/kg 3 h prior to FDG; pairwise comparisons did not reach statistical significance", "source_text": "3-phenylsulfonyl-8-piperazinyl-1yl-quinoline is a potent antagonist of the 5-hydroxytryptamine 6 (5-HT6) serotonin receptor. Reduced glucose utilization is an early sign of decreasing brain function in AD. Altered neuronal glucose uptake assessed by flurodeoxyglucose-positron emission tomography (FDG-PET) may be useful as a diagnostic foundation for identifying patients with AD. This study evaluates 3-phenylsulfonyl-8-piperazinyl-1yl-quinoline at clinically relevant doses on healthy rat brain glucose utilization using FDG-PET/CT.\nMethods: Healthy, young CD rats were pre-dosed with vehicle (1% methylcellulose, w/v) or RVT-101 (10 mg/kg or 20 mg/kg) 3 h prior to FDG (18.1±3.5 MBq, i.v.). Brain FDG standard uptake values (SUV) were quantified using scanning in single 20 min list mode (BioPET/CT, Sedecal) starting 30 min post FDG dosing. PET/CT scans were analyzed as a single time frame summarizing counts over 20 min. All experiments were completed in an accredited facility according to NIH guidelines. PET/CT imaging data were analyzed using Student's t-test, cluster analysis, and multivariate analysis of variance (MANOVA) using a subset of SUV from 5 cluster-identified regions."}, "[9]": {"system": "rabbits", "test": "nonclinical studies, seizures in rabbits", "assay_type": "in vivo", "protocol": "as §1"}, "[10]": {"system": "patients with Alzheimer's disease", "test": "AZ310866 Phase 2b study, ADAS-Cog score vs placebo", "assay_type": "in vivo, human", "protocol": "as §1"}, "[11]": {"test": "rat maximal electroshock seizure threshold test", "conditions": "in vivo, exposure at which seizure threshold was not decreased, read-out: extrapolated Cmax", "protocol": "as §1"}, "[12]": {"system": "mice", "test": "nonclinical studies, seizures in mice", "assay_type": "in vivo"}}}
{"smiles": "O=S(=O)(c1ccccc1)c1cnc2c(N3CCNCC3)cccc2c1", "note": "[3-phenylsulfonyl-8-piperazinyl-1yl-quinoline]", "values": [{"measurement": "seizures", "setting": "[1]", "value": "not in rodents"}, {"measurement": "subjects reporting seizures", "setting": "[2]", "value": "one"}, {"measurement": "plasma concentration associated with an increased seizure risk", "setting": "[3]", "value": "> 1570", "unit": "ng/mL"}, {"measurement": "plasma concentrations achieved", "setting": "[3]", "value": "up to 1937 ng/mL"}, {"measurement": "seizures", "setting": "[3]; 7.5 mg/kg/day", "value": "did not occur"}, {"measurement": "Cmax", "setting": "[4]", "value": 1700, "unit": "ng/mL"}, {"measurement": "concentration at 4 h post dose on Day 59", "setting": "[4]", "value": 1570, "unit": "ng/mL"}, {"measurement": "concentration at 6 h post dose on Day 59", "setting": "[4]", "value": 1440, "unit": "ng/mL"}, {"measurement": "AUC", "setting": "[5]", "value": "~3200", "unit": "ng·h/mL"}, {"measurement": "AUC(0-inf)", "setting": "[5]", "value": "~9250", "unit": "ng·h/mL"}, {"measurement": "Cmax", "setting": "[5]; Cmax", "value": "~293", "unit": "ng/mL"}, {"measurement": "Cmax", "setting": "[5]; mean Cmax", "value": "~180", "unit": "ng/mL"}, {"measurement": "seizures", "setting": "[6]", "value": "no seizures were observed"}, {"measurement": "Cmax", "setting": "[7]; both sexes, 35 mg, elderly subjects, 35 mg once daily for 28 days, read-out: highest recorded Cmax", "value": 307, "unit": "ng/mL"}, {"measurement": "Cmax", "setting": "[7]; female, 35 mg, elderly females, 35 mg once daily for 28 days, read-out: mean Cmax", "value": 177, "unit": "ng/mL"}, {"measurement": "expected maximum concentration at 70 mg relative to the Cmax observed in the 2 dogs with seizures", "setting": "[7]; human 70 mg vs dog", "value": "approximately ½"}, {"measurement": "expected mean Cmax at 70 mg relative to the Cmax observed in dogs with seizures", "setting": "[7]; human 70 mg vs dog", "value": "approximately ¼"}, {"measurement": "Cmax", "setting": "[7]; oral, 70 mg, multiple dosing with 70 mg, extrapolated given linear human pharmacokinetics, read-out: expected maximum Cmax", "value": 714, "unit": "ng/mL"}, {"measurement": "Cmax", "setting": "[7]; oral, 70 mg, multiple dosing with 70 mg, extrapolated given linear human pharmacokinetics, read-out: expected mean Cmax", "value": "~360", "unit": "ng/mL"}, {"measurement": "Cmax", "setting": "[7]; male, 35 mg, elderly males, 35 mg once daily for 28 days, read-out: mean Cmax", "value": 181, "unit": "ng/mL"}, {"measurement": "brain glucose uptake (FDG SUV)", "setting": "[8]", "value": "trend of increased glucose uptake"}, {"measurement": "seizures", "setting": "[9]; nonclinical studies", "value": "caused seizures"}, {"measurement": "seizures", "setting": "[9]; single dose at 300 mg/kg, exceeded the maximum tolerated repeat-dose level", "value": "seizures were produced"}, {"measurement": "increase in efficacy vs placebo in the ADAS-Cog score", "setting": "[10]; 15 mg", "value": "−0.7", "unit": "units"}, {"measurement": "increase in efficacy vs placebo in the ADAS-Cog score", "setting": "[10]; 35 mg", "value": "−1.7", "unit": "units"}, {"measurement": "Cmax", "setting": "[11]", "value": 1890, "unit": "ng/mL"}, {"measurement": "seizures", "setting": "[12]", "value": "not in rodents"}]}
